Results: PubChem BioAssay (NCI)
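In this assay, cells in 96-well plates receive the compound at five concentrations for 48 hours. Endpoints are linearly interpolated between the surrounding concentrations. At the GI50, growth is halved. TGI marks complete inhibition of growth.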

What was measured:
Assay in all cases: growth of human tumour cells (NCI), 48 h
786-0 renal = test system: 786-0 renal
A549 NSCLC = test system: A549 NSCLC
ACHN renal = test system: ACHN renal
CCRF-CEM leukemia = test system: CCRF-CEM leukemia
COLO 205 colon = test system: COLO 205 colon
DLD-1 colon = test system: DLD-1 colon
DMS 114 small cell lung = test system: DMS 114 small cell lung
DMS 273 small cell lung = test system: DMS 273 small cell lung
EKVX NSCLC = test system: EKVX NSCLC
HCC-2998 colon = test system: HCC-2998 colon
HCT-116 colon = test system: HCT-116 colon
HCT-15 colon = test system: HCT-15 colon
HL-60(TB) leukemia = test system: HL-60(TB) leukemia
HOP-62 NSCLC = test system: HOP-62 NSCLC
HOP-92 NSCLC = test system: HOP-92 NSCLC
HT29 colon = test system: HT29 colon
IGROV1 ovarian = test system: IGROV1 ovarian
K-562 leukemia = test system: K-562 leukemia
KM12 colon = test system: KM12 colon
KM20L2 colon = test system: KM20L2 colon
LXFL 529 NSCLC = test system: LXFL 529 NSCLC
M14 melanoma = test system: M14 melanoma
M19-MEL melanoma = test system: M19-MEL melanoma
MALME-3M melanoma = test system: MALME-3M melanoma
MOLT-4 leukemia = test system: MOLT-4 leukemia
NCI-H23 lung = test system: NCI-H23 lung
NCI-H460 lung = test system: NCI-H460 lung
NCI-H522 lung = test system: NCI-H522 lung
OVCAR-3 ovarian = test system: OVCAR-3 ovarian
OVCAR-4 ovarian = test system: OVCAR-4 ovarian
OVCAR-5 ovarian = test system: OVCAR-5 ovarian
OVCAR-8 ovarian = test system: OVCAR-8 ovarian
RPMI-8226 leukemia = test system: RPMI-8226 leukemia
RXF 393 renal = test system: RXF 393 renal
SF-268 CNS = test system: SF-268 CNS
SF-295 CNS = test system: SF-295 CNS
SF-539 CNS = test system: SF-539 CNS
SK-MEL-2 melanoma = test system: SK-MEL-2 melanoma
SK-MEL-28 melanoma = test system: SK-MEL-28 melanoma
SK-MEL-5 melanoma = test system: SK-MEL-5 melanoma
SN12C renal = test system: SN12C renal
SNB-19 CNS = test system: SNB-19 CNS
SNB-75 CNS = test system: SNB-75 CNS
SNB-78 CNS = test system: SNB-78 CNS
SW-620 colon = test system: SW-620 colon
TK-10 renal = test system: TK-10 renal
U251 CNS = test system: U251 CNS
UACC-257 melanoma = test system: UACC-257 melanoma
UACC-62 melanoma = test system: UACC-62 melanoma
UO-31 renal = test system: UO-31 renal
XF 498 CNS = test system: XF 498 CNS
A498 renal = test system: A498 renal
CAKI-1 renal = test system: CAKI-1 renal
HOP-18 NSCLC = test system: HOP-18 NSCLC
NCI-H226 lung = test system: NCI-H226 lung
SK-OV-3 ovarian = test system: SK-OV-3 ovarian

## CC(C)(C)CC(C)(C)c1cc2c(O)c(c1)Cc1cc(C(C)(C)CC(C)(C)C)cc(c1O)Cc1cc(C(C)(C)CC(C)(C)C)cc(c1O)Cc1cc(C(C)(C)CC(C)(C)C)cc(c1O)Cc1cc(C(C)(C)CC(C)(C)C)cc(c1O)C2
786-0 renal
  TGI: > 100 µM
A549 NSCLC
  TGI: > 100 µM
ACHN renal
  TGI: > 100 µM
CCRF-CEM leukemia
  TGI: > 100 µM
COLO 205 colon
  TGI: > 100 µM
DLD-1 colon
  TGI: > 100 µM
DMS 114 small cell lung
  TGI: > 100 µM
DMS 273 small cell lung
  TGI: > 100 µM
EKVX NSCLC
  TGI: > 100 µM
HCC-2998 colon
  TGI: > 100 µM
HCT-116 colon
  TGI: > 100 µM
HCT-15 colon
  TGI: > 100 µM
HL-60(TB) leukemia
  TGI: > 100 µM
HOP-62 NSCLC
  TGI: > 100 µM
HOP-92 NSCLC
  TGI: > 100 µM
HT29 colon
  TGI: > 100 µM
IGROV1 ovarian
  TGI: > 100 µM
K-562 leukemia
  TGI: > 100 µM
KM12 colon
  TGI: > 100 µM
KM20L2 colon
  TGI: > 100 µM
LXFL 529 NSCLC
  TGI: > 100 µM
M14 melanoma
  TGI: > 100 µM
M19-MEL melanoma
  TGI: > 100 µM
MALME-3M melanoma
  TGI: > 100 µM
MOLT-4 leukemia
  TGI: > 100 µM
NCI-H23 lung
  TGI: > 100 µM
NCI-H460 lung
  TGI: > 100 µM
NCI-H522 lung
  TGI: > 100 µM
OVCAR-3 ovarian
  TGI: > 100 µM
OVCAR-4 ovarian
  TGI: > 100 µM
OVCAR-5 ovarian
  TGI: > 100 µM
OVCAR-8 ovarian
  TGI: > 100 µM
RPMI-8226 leukemia
  TGI: > 100 µM
RXF 393 renal
  TGI: > 100 µM
SF-268 CNS
  TGI: > 100 µM
SF-295 CNS
  TGI: > 100 µM
SF-539 CNS
  TGI: > 100 µM
SK-MEL-2 melanoma
  TGI: > 100 µM
SK-MEL-28 melanoma
  TGI: > 100 µM
SK-MEL-5 melanoma
  TGI: > 100 µM
SN12C renal
  TGI: > 100 µM
SNB-19 CNS
  TGI: > 100 µM
SNB-75 CNS
  TGI: > 100 µM
SNB-78 CNS
  TGI: > 100 µM
SW-620 colon
  TGI: > 100 µM
TK-10 renal
  TGI: > 100 µM
U251 CNS
  TGI: > 100 µM
UACC-257 melanoma
  TGI: > 100 µM
UACC-62 melanoma
  TGI: > 100 µM
UO-31 renal
  TGI: > 100 µM
XF 498 CNS
  TGI: > 100 µM

## CC(=O)[CH-]C(=O)c1ccccc1.CC(=O)[CH-]C(=O)c1ccccc1.CC(C)CCCC(C)[C@H]1CCC2[C@@H]3CC=C4C[C@@H]([O-])CC[C@]4(C)C3CC[C@@]21C.CC(C)CCCC(C)[C@H]1CCC2[C@@H]3CC=C4C[C@@H]([O-])CC[C@]4(C)C3CC[C@@]21C.[Ti+4] (some centres undefined)
786-0 renal
  GI50: > 100 µM
  TGI: > 100 µM
A498 renal
  GI50: > 100 µM
  TGI: > 100 µM
ACHN renal
  GI50: > 100 µM
  TGI: > 100 µM
CAKI-1 renal
  GI50: > 100 µM
  TGI: > 100 µM
CCRF-CEM leukemia
  GI50: > 100 µM
  TGI: > 100 µM
COLO 205 colon
  GI50: > 100 µM
  TGI: > 100 µM
DLD-1 colon
  GI50: > 100 µM
  TGI: > 100 µM
DMS 273 small cell lung
  GI50: > 100 µM
  TGI: > 100 µM
HCC-2998 colon
  GI50: > 100 µM
  TGI: > 100 µM
HCT-116 colon
  GI50: > 100 µM
  TGI: > 100 µM
HCT-15 colon
  GI50: > 100 µM
  TGI: > 100 µM
HOP-18 NSCLC
  GI50: > 100 µM
  TGI: > 100 µM
HOP-62 NSCLC
  GI50: > 100 µM
  TGI: > 100 µM
HOP-92 NSCLC
  GI50: > 100 µM
  TGI: > 100 µM
HT29 colon
  GI50: > 100 µM
  TGI: > 100 µM
IGROV1 ovarian
  GI50: > 100 µM
  TGI: > 100 µM
K-562 leukemia
  GI50: > 100 µM
  TGI: > 100 µM
KM20L2 colon
  GI50: > 100 µM
  TGI: > 100 µM
LXFL 529 NSCLC
  GI50: > 100 µM
  TGI: > 100 µM
M14 melanoma
  GI50: > 100 µM
  TGI: > 100 µM
MOLT-4 leukemia
  GI50: > 100 µM
  TGI: > 100 µM
NCI-H226 lung
  GI50: > 100 µM
  TGI: > 100 µM
NCI-H23 lung
  GI50: > 100 µM
  TGI: > 100 µM
NCI-H460 lung
  GI50: > 100 µM
  TGI: > 100 µM
NCI-H522 lung
  GI50: > 100 µM
  TGI: > 100 µM
OVCAR-3 ovarian
  GI50: > 100 µM
  TGI: > 100 µM
OVCAR-4 ovarian
  GI50: > 100 µM
  TGI: > 100 µM
OVCAR-8 ovarian
  GI50: > 100 µM
  TGI: > 100 µM
RPMI-8226 leukemia
  GI50: > 100 µM
  TGI: > 100 µM
RXF 393 renal
  GI50: > 100 µM
  TGI: > 100 µM
SF-268 CNS
  GI50: > 100 µM
  TGI: > 100 µM
SF-539 CNS
  GI50: > 100 µM
  TGI: > 100 µM
SK-MEL-2 melanoma
  GI50: > 100 µM
  TGI: > 100 µM
SK-MEL-28 melanoma
  GI50: > 100 µM
  TGI: > 100 µM
SK-MEL-5 melanoma
  GI50: > 100 µM
  TGI: > 100 µM
SK-OV-3 ovarian
  GI50: > 100 µM
  TGI: > 100 µM
SN12C renal
  GI50: > 100 µM
  TGI: > 100 µM
SNB-75 CNS
  GI50: > 100 µM
  TGI: > 100 µM
SW-620 colon
  GI50: > 100 µM
  TGI: > 100 µM
TK-10 renal
  GI50: > 100 µM
  TGI: > 100 µM
U251 CNS
  GI50: > 100 µM
  TGI: > 100 µM
UACC-257 melanoma
  GI50: > 100 µM
  TGI: > 100 µM
UACC-62 melanoma
  GI50: > 100 µM
  TGI: > 100 µM
UO-31 renal
  GI50: > 100 µM
  TGI: > 100 µM
